Among the targets are Cytochrome P450 2D6 (Homo sapiens, UniProt P10635); Cytochrome P450 3A4 (Homo sapiens, UniProt P08684); Cytochrome P450 2C9 (Homo sapiens, UniProt P11712).
The target in a further data set is T1, Cytochrome P450 1A2 (Homo sapiens, UniProt P05177).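 Note: PubChem cytochrome P450 panel assay, CYP1A2 panel member.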
T1 sequence (P05177 whole entry): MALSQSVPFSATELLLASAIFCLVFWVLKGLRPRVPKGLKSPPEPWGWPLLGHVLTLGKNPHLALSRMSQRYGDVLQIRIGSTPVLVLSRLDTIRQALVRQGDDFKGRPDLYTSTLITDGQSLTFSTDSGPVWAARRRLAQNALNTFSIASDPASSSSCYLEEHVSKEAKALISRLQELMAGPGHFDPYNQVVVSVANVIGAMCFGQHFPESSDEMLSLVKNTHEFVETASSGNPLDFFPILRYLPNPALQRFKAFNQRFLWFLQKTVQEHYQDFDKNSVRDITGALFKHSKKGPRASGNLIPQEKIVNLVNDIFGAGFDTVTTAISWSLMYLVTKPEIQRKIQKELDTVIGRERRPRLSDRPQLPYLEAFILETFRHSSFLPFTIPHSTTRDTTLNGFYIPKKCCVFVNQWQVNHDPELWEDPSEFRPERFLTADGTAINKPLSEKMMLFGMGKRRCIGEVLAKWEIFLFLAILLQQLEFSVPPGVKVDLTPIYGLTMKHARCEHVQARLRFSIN

A short description of data set [1]: Luminescence Cell-Based Dose Confirmation HTS to Identify Inhibitors of Platelet Dense Granule Release. [Related pubchem assays: 1663 (Primary HTS), 1678 (Summary of Project)]. The class given is functional.
Data set [2] concerns the target Luciferin 4-monooxygenase (Photinus pyralis, UniProt P08659). As to the kind of experiment: firefly luciferase enzyme inhibitors, dose response, biochemical, luminescence (AID 1891).
A further data set is described as follows: cells. The class given is functional.
Data set [3] in a line: growth suppression of PTEN-null colon cells, dose response, cell-based, HCT116 PTEN knockout (AID 1047).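 Note: HCT116 colon tumor cells with PTEN knocked out; cells exposed to compound for 60 hours before readout; potency for loss of cell viability measured by luminescence.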 The class given is functional.
Data set [4] can be described thus: growth suppression of beta-catenin-knockout colon cells, dose response, cell-based, HCT116, human colon tumor (AID 1045).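 Note: HCT116 colon tumor cells with beta catenin knocked out; cells exposed to compound for 60 hours.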 The data set is classed as functional.
Data set [5] addresses T2, Polyadenylate-binding protein 1 (Homo sapiens, UniProt P11940). As to the kind of experiment: PABP1 MLLE–PAM2 binding inhibitor potency, dose response, biochemical, fluorescence polarization, FITC-PAM2 peptide (AID 602259). The class given is functional. The following applies: read-out: IC50_Mean. A general note: In fluorescence polarisation assays a small probe gives low polarisation when free and higher when bound to something large.

Data set [6] addresses T2, Polyadenylate-binding protein 1. As to the kind of experiment: PABP1 MLLE–PAM2 interaction inhibitors, dose response, miRNA deadenylation inhibitor project, biochemical, fluorescence polarization, Cy5-PAM2 peptide, secondary (AID 602260). The class given is functional. The following applies: read-out: IC50_Mean.
A further data set relates to H4. As to the kind of experiment: Luminescence Cell-Based Dose Response HTS to Identify Activators of 5'UTR Stem-Loop Driven Prion Protein mRNA Translation in H4 Neuroglioblastoma Cells. [Related pubchem assays: 1829 (Project Summary), 1814 (Primary HTS)]. The class given is functional. As to conditions: Homo sapiens.
Data set [7] in a line: Luminescence Cell-Based Dose Confirmation HTS to Identify Activators of 5'UTR Stem-Loop Driven Alpha-Synuclein mRNA Translation in H4 Neuroglioblastoma Cells. [Related pubchem assays: 1829 (Project Summary), 1814 (Primary HTS)]. The data set is classed as functional.
Data set [8] can be described thus: Luminescence Cell-Based Dose Response HTS to Identify Activators of Luciferase Translation or Activity in H4 […] Cells. [Related pubchem assays: 1829 (Project Summary), 1814 (Primary HTS)]. The class given is functional.
Data set [9] deals with FAD-linked sulfhydryl oxidase ALR (Homo sapiens, UniProt P55789). In words: inhibitors of human ALR sulfhydryl oxidase, dose response, biochemical, H2O2 detection, luminescence, cherry-pick (AID 493248).
The nature of data set [10]: inhibitors of clade B AD8 Env fusion, dose response, cell-based, cherry-pick (AID 652062).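 Note: luciferase signal from cell-cell fusion driven by HIV-1 clade B AD8 Env; potency is for inhibitors of fusion seen as a drop in luminescence.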 The data set is classed as functional.
Another data set has as its target Cytochrome P450 2C19 (Homo sapiens, UniProt P33261). In words: Cytochrome panel assay with activity outcomes. Panel member name: p450-cyp2c19 Compounds with AC50 equal or less than 10 uM are considered active. The data set is classed as functional.
Data set [11] deals with T3, Heat shock factor protein 1 (Mus musculus, UniProt P38532).
T3 sequence (P38532 whole entry): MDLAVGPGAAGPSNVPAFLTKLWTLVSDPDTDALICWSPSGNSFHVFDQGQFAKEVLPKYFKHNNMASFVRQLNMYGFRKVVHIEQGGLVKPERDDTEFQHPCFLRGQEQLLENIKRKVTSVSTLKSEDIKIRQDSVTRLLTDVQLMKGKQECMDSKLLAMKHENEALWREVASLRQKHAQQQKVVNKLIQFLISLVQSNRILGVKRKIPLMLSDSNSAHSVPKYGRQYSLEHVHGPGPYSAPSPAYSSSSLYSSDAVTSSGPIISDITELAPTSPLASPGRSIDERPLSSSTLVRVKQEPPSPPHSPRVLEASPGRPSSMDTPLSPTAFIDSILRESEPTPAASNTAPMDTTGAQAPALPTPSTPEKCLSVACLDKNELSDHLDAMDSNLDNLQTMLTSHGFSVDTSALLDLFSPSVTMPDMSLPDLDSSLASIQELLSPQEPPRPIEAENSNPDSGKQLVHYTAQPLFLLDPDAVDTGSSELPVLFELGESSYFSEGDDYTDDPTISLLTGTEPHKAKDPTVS
In words: HSF1 potentiators in luciferase reporter cells, confirmation, cell-based, NIH3T3, luminescence, dose retest (AID 435004).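 Note: stress induced by proteasome inhibitor MG132 added 30 min after compound; luciferase reporter driven by HSF1 response element in NIH3T3 cells; actives raise luminescence as potentiators of the MG132 stress response.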 The data set is classed as functional. Background: A reporter such as luciferase makes a cellular process visible.

Data set [12] can be described thus: Luminescence Cell-Based Dose Response HTS to Identify Inhibitors of 5'UTR Stem-Loop Driven Prion Protein mRNA Translation in H4 Neuroglioblastoma Cells. [Related pubchem assays: 1827 (Project Summary), 1813 (Primary HTS)]. The class given is functional.
Data set [13] is described as follows: inhibitors of firefly luciferase expression or activity, dose response, H4 neuroglioma cells, luminescence (AID 1990). The data set is classed as functional, cell-based.
Data set [14] can be described thus: inhibitors of SNCA 5'UTR-driven reporter translation, confirmation, H4 neuroglioma cells, luminescence (AID 1988). The data set is classed as functional, cell-based.

One may read the AC50 as the concentration at which the activity in the assay is half-maximal. For orientation: EC50 means the concentration needed to bring the measured effect to its halfway point.

Activity calls are given as the source filed them. Bounds are passed on as bounds.

Sequence of Cytochrome P450 2D6 (P10635 whole entry): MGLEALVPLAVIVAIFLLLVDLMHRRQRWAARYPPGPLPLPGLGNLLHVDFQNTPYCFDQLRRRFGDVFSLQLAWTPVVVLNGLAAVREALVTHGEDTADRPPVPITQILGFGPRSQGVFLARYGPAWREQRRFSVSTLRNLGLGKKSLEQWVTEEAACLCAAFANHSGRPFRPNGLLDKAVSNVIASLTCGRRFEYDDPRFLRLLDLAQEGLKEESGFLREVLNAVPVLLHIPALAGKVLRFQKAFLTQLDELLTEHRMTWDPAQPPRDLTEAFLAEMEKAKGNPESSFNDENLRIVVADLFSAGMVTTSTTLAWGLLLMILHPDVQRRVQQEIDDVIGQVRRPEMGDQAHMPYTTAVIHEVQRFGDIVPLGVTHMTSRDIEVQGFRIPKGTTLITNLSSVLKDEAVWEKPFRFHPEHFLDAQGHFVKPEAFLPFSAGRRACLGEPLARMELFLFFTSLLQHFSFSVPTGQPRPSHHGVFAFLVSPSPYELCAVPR
Sequence of Cytochrome P450 2C19 (P33261 whole entry): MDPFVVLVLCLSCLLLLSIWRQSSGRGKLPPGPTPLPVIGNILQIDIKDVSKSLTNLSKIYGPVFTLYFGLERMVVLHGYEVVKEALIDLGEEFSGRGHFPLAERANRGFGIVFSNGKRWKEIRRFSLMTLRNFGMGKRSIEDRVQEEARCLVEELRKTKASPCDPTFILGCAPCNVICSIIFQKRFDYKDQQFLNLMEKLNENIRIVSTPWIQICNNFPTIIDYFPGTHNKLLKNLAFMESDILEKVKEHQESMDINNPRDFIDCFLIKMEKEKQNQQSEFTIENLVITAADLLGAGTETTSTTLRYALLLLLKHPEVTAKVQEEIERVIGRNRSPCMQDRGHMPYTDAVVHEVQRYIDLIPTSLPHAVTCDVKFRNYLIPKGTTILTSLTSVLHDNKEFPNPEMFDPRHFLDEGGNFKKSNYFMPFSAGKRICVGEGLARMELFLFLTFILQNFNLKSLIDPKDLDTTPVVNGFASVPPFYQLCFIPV
Sequence of Cytochrome P450 2C9 (P11712 whole entry): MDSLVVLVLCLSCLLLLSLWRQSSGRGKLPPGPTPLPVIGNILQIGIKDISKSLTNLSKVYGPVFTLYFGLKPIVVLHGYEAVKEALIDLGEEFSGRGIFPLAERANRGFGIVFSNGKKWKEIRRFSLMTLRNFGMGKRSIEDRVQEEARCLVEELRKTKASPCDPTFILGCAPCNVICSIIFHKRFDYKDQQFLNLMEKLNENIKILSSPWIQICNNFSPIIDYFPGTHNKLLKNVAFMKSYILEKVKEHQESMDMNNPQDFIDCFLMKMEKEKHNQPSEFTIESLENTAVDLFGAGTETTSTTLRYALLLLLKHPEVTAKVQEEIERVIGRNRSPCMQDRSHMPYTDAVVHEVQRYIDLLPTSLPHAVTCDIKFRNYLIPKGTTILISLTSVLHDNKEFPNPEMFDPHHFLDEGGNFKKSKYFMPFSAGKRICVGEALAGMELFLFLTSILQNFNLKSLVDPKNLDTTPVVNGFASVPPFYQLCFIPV
Sequence of Luciferin 4-monooxygenase (P08659 whole entry): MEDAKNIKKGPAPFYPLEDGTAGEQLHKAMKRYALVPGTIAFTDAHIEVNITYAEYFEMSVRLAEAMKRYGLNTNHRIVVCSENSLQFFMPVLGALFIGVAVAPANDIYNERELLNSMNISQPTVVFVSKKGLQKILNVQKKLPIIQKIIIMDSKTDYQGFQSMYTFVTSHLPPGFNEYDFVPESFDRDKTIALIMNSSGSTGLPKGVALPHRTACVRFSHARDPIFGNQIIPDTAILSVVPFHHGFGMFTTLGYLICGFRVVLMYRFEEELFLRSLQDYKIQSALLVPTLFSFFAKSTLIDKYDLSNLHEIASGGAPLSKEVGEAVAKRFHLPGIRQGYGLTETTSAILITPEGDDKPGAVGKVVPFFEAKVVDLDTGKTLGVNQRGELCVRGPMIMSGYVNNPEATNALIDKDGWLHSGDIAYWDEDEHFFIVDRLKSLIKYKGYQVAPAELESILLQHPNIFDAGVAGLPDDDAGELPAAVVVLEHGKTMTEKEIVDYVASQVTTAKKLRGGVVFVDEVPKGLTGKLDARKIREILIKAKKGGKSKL
T2 sequence (P11940 whole entry): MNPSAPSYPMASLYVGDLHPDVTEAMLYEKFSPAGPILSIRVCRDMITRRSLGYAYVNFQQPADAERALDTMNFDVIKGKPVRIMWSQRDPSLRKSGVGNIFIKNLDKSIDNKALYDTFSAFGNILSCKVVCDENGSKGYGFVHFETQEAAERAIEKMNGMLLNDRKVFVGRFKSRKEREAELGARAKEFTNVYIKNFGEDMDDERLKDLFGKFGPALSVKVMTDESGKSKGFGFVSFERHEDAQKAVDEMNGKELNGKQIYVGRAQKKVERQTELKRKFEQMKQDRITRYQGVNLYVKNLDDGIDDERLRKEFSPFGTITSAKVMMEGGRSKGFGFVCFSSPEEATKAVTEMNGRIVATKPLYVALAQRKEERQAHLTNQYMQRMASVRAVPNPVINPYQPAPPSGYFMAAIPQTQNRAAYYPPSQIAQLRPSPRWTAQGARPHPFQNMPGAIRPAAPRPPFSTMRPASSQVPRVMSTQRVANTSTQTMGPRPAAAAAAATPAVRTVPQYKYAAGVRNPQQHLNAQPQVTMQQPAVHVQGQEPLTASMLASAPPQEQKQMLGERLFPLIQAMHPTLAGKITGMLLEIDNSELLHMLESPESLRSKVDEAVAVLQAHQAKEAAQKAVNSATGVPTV
Sequence of Cytochrome P450 3A4 (P08684 whole entry): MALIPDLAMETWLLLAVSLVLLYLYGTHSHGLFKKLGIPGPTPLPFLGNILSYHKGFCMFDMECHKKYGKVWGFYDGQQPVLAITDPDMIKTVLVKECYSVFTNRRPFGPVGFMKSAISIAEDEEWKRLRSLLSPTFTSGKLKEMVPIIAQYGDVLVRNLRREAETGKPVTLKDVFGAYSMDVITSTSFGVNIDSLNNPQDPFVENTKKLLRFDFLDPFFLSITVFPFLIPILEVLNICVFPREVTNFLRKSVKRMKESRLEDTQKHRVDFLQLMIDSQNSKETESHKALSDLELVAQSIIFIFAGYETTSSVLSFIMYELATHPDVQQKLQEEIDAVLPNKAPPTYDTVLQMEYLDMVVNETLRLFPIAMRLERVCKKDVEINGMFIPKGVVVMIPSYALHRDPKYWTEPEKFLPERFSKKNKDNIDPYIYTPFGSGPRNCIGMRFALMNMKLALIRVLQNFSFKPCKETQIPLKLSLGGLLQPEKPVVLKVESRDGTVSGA
Sequence of FAD-linked sulfhydryl oxidase ALR (P55789 whole entry, the tested form may be a part): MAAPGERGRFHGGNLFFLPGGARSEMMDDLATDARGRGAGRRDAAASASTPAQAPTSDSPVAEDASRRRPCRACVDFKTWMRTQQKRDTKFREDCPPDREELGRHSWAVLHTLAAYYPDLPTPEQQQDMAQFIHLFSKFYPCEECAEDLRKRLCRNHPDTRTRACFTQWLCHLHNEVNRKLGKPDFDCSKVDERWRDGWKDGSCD

`O=C(CCNC(=O)Cn1cnc2ccccc2c1=O)NCC1COc2ccccc2O1` (configuration not stated): at Cytochrome P450 1A2, the AC50 was 0.01 µM (inconclusive).

For `CCOC(=O)C1=C(C)N(c2ccc(C)cc2)C(=O)/C1=C\c1ccc(O)c(OC)c1`, the half-maximal effective concentration (EC50) in data set [1] and in [2] was > 112 µM (not active) throughout.

For the compound `CCCSc1cc(NCCOC(C)=O)c([N+](=O)[O-])c2nonc12`, the concentration giving a half-maximal response (EC50) in data set [1] and in data set [2] was > 112 µM (not active) in each case.

With `CC(C)c1nnc(NC(=O)c2cc3cc(Br)ccc3oc2=O)s1`, the IC50 in the data set “cells” was 0.66 µM (active).

In the case of `CSc1cccc(NC(=O)c2cc(S(=O)(=O)N3CCCC3)cn2C)c1`, the EC50 in data set [1] and in data set [2] was > 112 µM (not active) in each case.

As to `O=C(Cc1cccc2ccccc12)NC(NC(=S)Nc1ccccc1Cl)C(Cl)(Cl)Cl` (configuration not stated), the results for the EC50 in data set [3] and in [4] were 15.2 µM (active) and 16.7 µM (active), respectively. The IC50 in [5] and in data set [6] was > 66 µM (inactive) in each case.

As to `CCc1ccc2nc(O)c(CN(Cc3nnnn3C3CCCC3)C3CCCCC3)cc2c1`, the concentration giving a half-maximal response (EC50) in [3] is 18.8 µM (active); in the data set with H4, > 120 µM (not active); in data set [7] it was > 120 µM (not active); in data set [8], > 120 µM (not active); in [4], 19.7 µM (active).

For the compound `CCOC(=O)c1ccc(NC(=O)c2cccc(S(=O)(=O)N3CCOCC3)c2)cc1`, the EC50 in data set [3] is 30.4 µM (active); in data set [4] it was 22 µM (active).

Consider `CCc1cc(-c2nnc(S)n2-c2cccc(C)c2)cs1`, for which, in [9], the concentration at half-maximal activity (AC50) is 3.65 µM (active).

For `O=C1[C@@H]2Cc3c([nH]c4ccccc34)[C@@H](c3ccccc3)N2C(=O)[C@@H]2Cc3c([nH]c4ccccc34)[C@@H](c3ccccc3)N12`, the figures for the EC50 in [3] and in data set [4] were 9.58 µM (active) and 9.96 µM (active), respectively.

For `CC(=O)NC(CCS(C)(=O)=O)C(=O)Nc1cc(C)on1` (configuration not stated), the concentration for a half-maximal effect (EC50) in [1] and in data set [2] was > 112 µM (not active) throughout.

`COC(=O)c1ccc(NC(=O)c2ccc(CN3CCOCC3)cc2)cc1`: the half-maximal activity concentration (AC50) in [10] is 43.4 µM (active).

For `COc1ccc2[nH]cc(CCNc3ncnc4ccc(-c5ccccc5CN(C)C)cc34)c2c1`, on Cytochrome P450 1A2, the AC50 was 31.6 µM (inconclusive).

Consider `COC(=O)[C@H](C)[C@H]1C[C@]1(C)[C@H](NC(=O)OCc1ccccc1)c1ccccc1`, for which the half-maximal activity concentration (AC50) at Cytochrome P450 1A2 was 15.8 µM (inconclusive).

In the case of `O=C(Nc1ccc(Cl)cc1)c1cnc(-c2ccccc2)nc1-c1ccccc1`, the values for the concentration giving a half-maximal response (EC50) in data set [3] and in [4] were 7.19 µM (active) and 6.45 µM (active), respectively. Besides, the AC50 at Cytochrome P450 2C19 (read-out: AC50) was 1 µM (inconclusive).

For the compound `SC1=Nc2ccc(Cl)cc2C(c2ccccc2)=NC1`, in the data set “cells”, the IC50 was > 50 µM (active). Moreover, the EC50 in data set [11] is > 260 µM (inactive).

As to `Cc1cc(C)n(C(=O)c2ccc([N+](=O)[O-])cc2[N+](=O)[O-])n1`, the IC50 in “cells” was 43.6 µM (active).

With `COC(=O)[C@@]1(Cc2ccc(F)cc2)[C@H]2c3cc(C(=O)N(C)C)n(CCc4c[nH]c5ccc(OC)cc45)c3C[C@H]2CN1C(=O)c1ccccc1`, the AC50 on Cytochrome P450 1A2 was 12.6 µM (inconclusive); on Cytochrome P450 2C19 (read-out: AC50) it was 39.8 µM (inconclusive).

Regarding `COc1cccc(NC(=O)c2ccc(Cn3cc([N+](=O)[O-])cn3)o2)c1`, in the data set “cells”, the IC50 is 18.5 µM (active).

In the case of `c1ccc(-c2nc3c4ccccc4ccn3c2CN2CCCCC2)cc1`, the EC50 was > 112 µM (not active) in data set [1] and 14.8 µM (active) in data set [2].

Consider `CCC(c1nnnn1CC1CCCO1)N(CCN1CCOCC1)Cc1cc2cc(C)ccc2nc1O` (configuration not stated), for which, on Cytochrome P450 1A2, the concentration at half-maximal activity (AC50) is 25.1 µM (inconclusive).

For `COc1cccc(Cn2c(=O)c(-c3cn(C)c4ccccc34)nc3cnc(N4CCNCC4)nc32)c1`, the AC50 is 15.8 µM (inconclusive) at Cytochrome P450 1A2, 39.8 µM (inconclusive) on Cytochrome P450 2D6 and 15.8 µM (inconclusive) at Cytochrome P450 3A4.

In the case of `O=C(Oc1ccccc1)c1cccc(COC(=O)c2cnccn2)c1`, the IC50 in “cells” was 6.99 µM (active).

Consider `COc1ccc(CNC(=O)c2cc3cccc(O)c3oc2=N)cc1`, for which the IC50 in the data set “cells” is 47.8 µM (active).

For `CN(C)C(=O)c1ccc(-c2nc(NCc3cccnc3)c3ccccc3n2)cc1`, the values for the AC50 on Cytochrome P450 1A2 and at Cytochrome P450 2D6 were 10 µM (inconclusive) and 39.8 µM (inconclusive), respectively.

For the compound `O=C(NCC1CCCO1)c1ccc(NC(=O)c2cccc(Cl)c2)cc1` (configuration not stated), the EC50 in [1] and in data set [2] was > 112 µM (not active) in each case.

With `Cc1c(C(=O)N2CCCCCC2)nnn1-c1nonc1N`, the AC50 on Cytochrome P450 1A2 is 15.8 µM (inconclusive); on Cytochrome P450 2D6 it was 17.8 µM (inconclusive); at Cytochrome P450 2C9, 14.1 µM (inconclusive).

For `Oc1ccccc1CN1CCCC(N2CCN(c3cccc(C(F)(F)F)c3)CC2)C1` (configuration not stated), the IC50 in the data set “cells” was 22.9 µM (active).

Regarding `CC#CCCCC(=O)Nc1ccc(C(=O)O)cc1`, the values for the AC50 at Cytochrome P450 1A2, on Cytochrome P450 2C9 and at Cytochrome P450 2C19 were 28.2 µM (inconclusive), 39.8 µM (inconclusive) and “inconclusive”, respectively.

Regarding `C[C@@H]1CN([C@@H](C)CO)C(=O)c2cc(C3=CCCC3)cnc2O[C@@H]1CN(C)Cc1ccc(C(=O)O)cc1`, the AC50 in [10] was 10.9 µM (active).

As to `OCC/N=C1\CCCc2c1[nH]c1ccc(Br)cc21`, the half-maximal activity concentration (AC50) at Cytochrome P450 1A2 is 0.251 µM (inconclusive); on Cytochrome P450 2D6, 1 µM (inconclusive); at Cytochrome P450 2C9, 7.08 µM (inconclusive). Moreover, the 50% effective concentration (EC50) in [12] is 48.8 µM (active); in [13], < 0.1 µM (active); in [14] it was 8.41 µM (active).

Consider `COc1cccc(C(=O)N/N=C/c2c[nH]nc2-c2ccc(OC)cc2OC)c1`, for which the EC50 in [1] and in data set [2] was > 112 µM (not active) each time.

In the case of `CC1(C)CCC(C)(C)c2cc(C(=O)Nc3ccc(C(=O)O)cc3)ccc21`, the AC50 on Cytochrome P450 1A2 was 31.6 µM (inconclusive); at Cytochrome P450 2C9 it was 15.8 µM (inconclusive); on Cytochrome P450 2C19 (read-out: AC50), 31.6 µM (inconclusive).

The record behind these values is ChEMBL document CHEMBL1201862, “PubChem BioAssay data set” (2004).
